Here are results for 20 substances from the OligoGym collection.

Oligonucleotides are given in HELM: sugar(base)linkage, 5' to 3'; d 2'-deoxyribose, r ribose, m 2'-O-methylribose, p phosphate. ss, as = sense and antisense strand
Also: test concentration or dose not given here.

In the series the target is UBE2D3. The series is described as follows: reporter assay of Huesken 2005. Conditions: siRNA.
In turn, “RNA1{r(C)p.r(C)p.r(A)p.r(G)p.r(A)p.r(G)p.r(A)p.r(U)p.r(U)p.r(G)p.r(C)p.r(A)p.r(C)p.r(G)p.r(G)p.r(A)p.r(U)p.r(C)p.r(U)p.d(T)p.d(T)}|RNA2{r(A)p.r(G)p.r(A)p.r(U)p.r(C)p.r(C)p.r(G)p.r(U)p.r(G)p.r(C)p.r(A)p.r(A)p.r(U)p.r(C)p.r(U)p.r(C)p.r(U)p.r(G)p.r(G)p.d(C)p.d(A)}$$$RNA1{StrandType:ss}|RNA2{StrandType:as}$” displayed a normalised inhibition (eCFP-eYFP dual reporter) of 82%.
As for “RNA1{r(C)p.r(C)p.r(A)p.r(U)p.r(U)p.r(U)p.r(G)p.r(U)p.r(U)p.r(C)p.r(A)p.r(C)p.r(U)p.r(G)p.r(C)p.r(U)p.r(A)p.r(U)p.r(G)p.d(T)p.d(T)}|RNA2{r(C)p.r(A)p.r(U)p.r(A)p.r(G)p.r(C)p.r(A)p.r(G)p.r(U)p.r(G)p.r(A)p.r(A)p.r(C)p.r(A)p.r(A)p.r(A)p.r(U)p.r(G)p.r(G)p.d(A)p.d(T)}$$$RNA1{StrandType:ss}|RNA2{StrandType:as}$”, the figure is 94.5%; as for “RNA1{r(C)p.r(C)p.r(U)p.r(A)p.r(C)p.r(A)p.r(G)p.r(A)p.r(C)p.r(U)p.r(A)p.r(C)p.r(C)p.r(C)p.r(C)p.r(U)p.r(U)p.r(C)p.r(A)p.d(T)p.d(T)}|RNA2{r(U)p.r(G)p.r(A)p.r(A)p.r(G)p.r(G)p.r(G)p.r(G)p.r(U)p.r(A)p.r(G)p.r(U)p.r(C)p.r(U)p.r(G)p.r(U)p.r(A)p.r(G)p.r(G)p.d(A)p.d(A)}$$$RNA1{StrandType:ss}|RNA2{StrandType:as}$”, 99.9%.
Take “RNA1{r(C)p.r(C)p.r(U)p.r(A)p.r(G)p.r(U)p.r(G)p.r(C)p.r(C)p.r(A)p.r(G)p.r(A)p.r(G)p.r(A)p.r(U)p.r(U)p.r(G)p.r(C)p.r(A)p.d(T)p.d(T)}|RNA2{r(U)p.r(G)p.r(C)p.r(A)p.r(A)p.r(U)p.r(C)p.r(U)p.r(C)p.r(U)p.r(G)p.r(G)p.r(C)p.r(A)p.r(C)p.r(U)p.r(A)p.r(G)p.r(G)p.d(G)p.d(G)}$$$RNA1{StrandType:ss}|RNA2{StrandType:as}$”: the normalised inhibition (eCFP-eYFP dual reporter) worked out at 86.2%.
The same measure for “RNA1{r(C)p.r(C)p.r(U)p.r(U)p.r(C)p.r(A)p.r(A)p.r(A)p.r(C)p.r(C)p.r(A)p.r(C)p.r(C)p.r(U)p.r(A)p.r(A)p.r(G)p.r(G)p.r(U)p.d(T)p.d(T)}|RNA2{r(A)p.r(C)p.r(C)p.r(U)p.r(U)p.r(A)p.r(G)p.r(G)p.r(U)p.r(G)p.r(G)p.r(U)p.r(U)p.r(U)p.r(G)p.r(A)p.r(A)p.r(G)p.r(G)p.d(G)p.d(G)}$$$RNA1{StrandType:ss}|RNA2{StrandType:as}$”: 94.5%; for “RNA1{r(C)p.r(U)p.r(A)p.r(A)p.r(G)p.r(G)p.r(U)p.r(U)p.r(G)p.r(C)p.r(A)p.r(U)p.r(U)p.r(U)p.r(A)p.r(C)p.r(A)p.r(A)p.r(C)p.d(T)p.d(T)}|RNA2{r(G)p.r(U)p.r(U)p.r(G)p.r(U)p.r(A)p.r(A)p.r(A)p.r(U)p.r(G)p.r(C)p.r(A)p.r(A)p.r(C)p.r(C)p.r(U)p.r(U)p.r(A)p.r(G)p.d(G)p.d(T)}$$$RNA1{StrandType:ss}|RNA2{StrandType:as}$”: 80.9%; for “RNA1{r(C)p.r(U)p.r(A)p.r(C)p.r(A)p.r(G)p.r(A)p.r(C)p.r(U)p.r(A)p.r(C)p.r(C)p.r(C)p.r(C)p.r(U)p.r(U)p.r(C)p.r(A)p.r(A)p.d(T)p.d(T)}|RNA2{r(U)p.r(U)p.r(G)p.r(A)p.r(A)p.r(G)p.r(G)p.r(G)p.r(G)p.r(U)p.r(A)p.r(G)p.r(U)p.r(C)p.r(U)p.r(G)p.r(U)p.r(A)p.r(G)p.d(G)p.d(A)}$$$RNA1{StrandType:ss}|RNA2{StrandType:as}$”: 94.9%.
The same measure for “RNA1{r(C)p.r(U)p.r(A)p.r(U)p.r(G)p.r(U)p.r(G)p.r(A)p.r(U)p.r(C)p.r(C)p.r(A)p.r(A)p.r(A)p.r(C)p.r(C)p.r(C)p.r(A)p.r(G)p.d(T)p.d(T)}|RNA2{r(C)p.r(U)p.r(G)p.r(G)p.r(G)p.r(U)p.r(U)p.r(U)p.r(G)p.r(G)p.r(A)p.r(U)p.r(C)p.r(A)p.r(C)p.r(A)p.r(U)p.r(A)p.r(G)p.d(C)p.d(A)}$$$RNA1{StrandType:ss}|RNA2{StrandType:as}$”: 95.8%.
As to “RNA1{r(C)p.r(U)p.r(G)p.r(C)p.r(U)p.r(U)p.r(U)p.r(A)p.r(A)p.r(C)p.r(A)p.r(A)p.r(U)p.r(U)p.r(U)p.r(C)p.r(U)p.r(A)p.r(A)p.d(T)p.d(T)}|RNA2{r(U)p.r(U)p.r(A)p.r(G)p.r(A)p.r(A)p.r(A)p.r(U)p.r(U)p.r(G)p.r(U)p.r(U)p.r(A)p.r(A)p.r(A)p.r(G)p.r(C)p.r(A)p.r(G)p.d(G)p.d(C)}$$$RNA1{StrandType:ss}|RNA2{StrandType:as}$”, the normalised inhibition (eCFP-eYFP dual reporter) was found to be 89.7%.
As for “RNA1{r(C)p.r(U)p.r(U)p.r(U)p.r(U)p.r(A)p.r(U)p.r(C)p.r(C)p.r(A)p.r(U)p.r(U)p.r(U)p.r(G)p.r(U)p.r(U)p.r(C)p.r(A)p.r(C)p.d(T)p.d(T)}|RNA2{r(G)p.r(U)p.r(G)p.r(A)p.r(A)p.r(C)p.r(A)p.r(A)p.r(A)p.r(U)p.r(G)p.r(G)p.r(A)p.r(U)p.r(A)p.r(A)p.r(A)p.r(A)p.r(G)p.d(A)p.d(A)}$$$RNA1{StrandType:ss}|RNA2{StrandType:as}$”, the figure is 27%; as for “RNA1{r(G)p.r(A)p.r(C)p.r(A)p.r(A)p.r(U)p.r(U)p.r(C)p.r(A)p.r(U)p.r(U)p.r(U)p.r(U)p.r(C)p.r(C)p.r(U)p.r(A)p.r(C)p.r(A)p.d(T)p.d(T)}|RNA2{r(U)p.r(G)p.r(U)p.r(A)p.r(G)p.r(G)p.r(A)p.r(A)p.r(A)p.r(A)p.r(U)p.r(G)p.r(A)p.r(A)p.r(U)p.r(U)p.r(G)p.r(U)p.r(C)p.d(A)p.d(A)}$$$RNA1{StrandType:ss}|RNA2{StrandType:as}$”, 92.3%; as for “RNA1{r(G)p.r(A)p.r(C)p.r(U)p.r(A)p.r(C)p.r(C)p.r(C)p.r(C)p.r(U)p.r(U)p.r(C)p.r(A)p.r(A)p.r(A)p.r(C)p.r(C)p.r(A)p.r(C)p.d(T)p.d(T)}|RNA2{r(G)p.r(U)p.r(G)p.r(G)p.r(U)p.r(U)p.r(U)p.r(G)p.r(A)p.r(A)p.r(G)p.r(G)p.r(G)p.r(G)p.r(U)p.r(A)p.r(G)p.r(U)p.r(C)p.d(T)p.d(G)}$$$RNA1{StrandType:ss}|RNA2{StrandType:as}$”, 87.6%.
In turn, “RNA1{r(G)p.r(A)p.r(U)p.r(C)p.r(C)p.r(A)p.r(A)p.r(A)p.r(C)p.r(C)p.r(C)p.r(A)p.r(G)p.r(A)p.r(U)p.r(G)p.r(A)p.r(C)p.r(C)p.d(T)p.d(T)}|RNA2{r(G)p.r(G)p.r(U)p.r(C)p.r(A)p.r(U)p.r(C)p.r(U)p.r(G)p.r(G)p.r(G)p.r(U)p.r(U)p.r(U)p.r(G)p.r(G)p.r(A)p.r(U)p.r(C)p.d(A)p.d(C)}$$$RNA1{StrandType:ss}|RNA2{StrandType:as}$” returned a normalised inhibition (eCFP-eYFP dual reporter) of 56.5%.
The same measure for “RNA1{r(G)p.r(A)p.r(U)p.r(G)p.r(A)p.r(U)p.r(A)p.r(U)p.r(G)p.r(U)p.r(U)p.r(U)p.r(C)p.r(A)p.r(U)p.r(U)p.r(G)p.r(G)p.r(C)p.d(T)p.d(T)}|RNA2{r(G)p.r(C)p.r(C)p.r(A)p.r(A)p.r(U)p.r(G)p.r(A)p.r(A)p.r(A)p.r(C)p.r(A)p.r(U)p.r(A)p.r(U)p.r(C)p.r(A)p.r(U)p.r(C)p.d(C)p.d(C)}$$$RNA1{StrandType:ss}|RNA2{StrandType:as}$”: 66.1%; for “RNA1{r(G)p.r(A)p.r(U)p.r(U)p.r(G)p.r(C)p.r(A)p.r(C)p.r(G)p.r(G)p.r(A)p.r(U)p.r(C)p.r(U)p.r(A)p.r(U)p.r(A)p.r(A)p.r(A)p.d(T)p.d(T)}|RNA2{r(U)p.r(U)p.r(U)p.r(A)p.r(U)p.r(A)p.r(G)p.r(A)p.r(U)p.r(C)p.r(C)p.r(G)p.r(U)p.r(G)p.r(C)p.r(A)p.r(A)p.r(U)p.r(C)p.d(T)p.d(C)}$$$RNA1{StrandType:ss}|RNA2{StrandType:as}$”: 92.4%; for “RNA1{r(G)p.r(C)p.r(A)p.r(A)p.r(G)p.r(C)p.r(C)p.r(A)p.r(C)p.r(A)p.r(A)p.r(U)p.r(U)p.r(A)p.r(U)p.r(G)p.r(G)p.r(G)p.r(A)p.d(T)p.d(T)}|RNA2{r(U)p.r(C)p.r(C)p.r(C)p.r(A)p.r(U)p.r(A)p.r(A)p.r(U)p.r(U)p.r(G)p.r(U)p.r(G)p.r(G)p.r(C)p.r(U)p.r(U)p.r(G)p.r(C)p.d(C)p.d(A)}$$$RNA1{StrandType:ss}|RNA2{StrandType:as}$”: 75.8%.
As for “RNA1{r(G)p.r(C)p.r(A)p.r(C)p.r(A)p.r(A)p.r(U)p.r(G)p.r(U)p.r(U)p.r(C)p.r(U)p.r(G)p.r(C)p.r(A)p.r(G)p.r(G)p.r(U)p.r(C)p.d(T)p.d(T)}|RNA2{r(G)p.r(A)p.r(C)p.r(C)p.r(U)p.r(G)p.r(C)p.r(A)p.r(G)p.r(A)p.r(A)p.r(C)p.r(A)p.r(U)p.r(U)p.r(G)p.r(U)p.r(G)p.r(C)p.d(T)p.d(G)}$$$RNA1{StrandType:ss}|RNA2{StrandType:as}$”, the figure is 100%; as for “RNA1{r(G)p.r(G)p.r(C)p.r(A)p.r(A)p.r(G)p.r(C)p.r(C)p.r(A)p.r(C)p.r(A)p.r(A)p.r(U)p.r(U)p.r(A)p.r(U)p.r(G)p.r(G)p.r(G)p.d(T)p.d(T)}|RNA2{r(C)p.r(C)p.r(C)p.r(A)p.r(U)p.r(A)p.r(A)p.r(U)p.r(U)p.r(G)p.r(U)p.r(G)p.r(G)p.r(C)p.r(U)p.r(U)p.r(G)p.r(C)p.r(C)p.d(A)p.d(A)}$$$RNA1{StrandType:ss}|RNA2{StrandType:as}$”, 60.2%.
The same measure for “RNA1{r(G)p.r(G)p.r(G)p.r(A)p.r(U)p.r(G)p.r(A)p.r(U)p.r(A)p.r(U)p.r(G)p.r(U)p.r(U)p.r(U)p.r(C)p.r(A)p.r(U)p.r(U)p.r(G)p.d(T)p.d(T)}|RNA2{r(C)p.r(A)p.r(A)p.r(U)p.r(G)p.r(A)p.r(A)p.r(A)p.r(C)p.r(A)p.r(U)p.r(A)p.r(U)p.r(C)p.r(A)p.r(U)p.r(C)p.r(C)p.r(C)p.d(C)p.d(A)}$$$RNA1{StrandType:ss}|RNA2{StrandType:as}$”: 95%; for “RNA1{r(G)p.r(G)p.r(U)p.r(C)p.r(C)p.r(A)p.r(G)p.r(U)p.r(U)p.r(G)p.r(G)p.r(G)p.r(G)p.r(A)p.r(U)p.r(G)p.r(A)p.r(U)p.r(A)p.d(T)p.d(T)}|RNA2{r(U)p.r(A)p.r(U)p.r(C)p.r(A)p.r(U)p.r(C)p.r(C)p.r(C)p.r(C)p.r(A)p.r(A)p.r(C)p.r(U)p.r(G)p.r(G)p.r(A)p.r(C)p.r(C)p.d(T)p.d(G)}$$$RNA1{StrandType:ss}|RNA2{StrandType:as}$”: 93.7%.
